Assay results from patent US6413936B1, “Glycomimetics as selectin antagonists and pharmaceuticals having antiinflammatory activity” (Glycorex AB, priority 1995, dated 2002).
Like-named read-outs stand apart in the source and are kept apart here. Numbered stars: 1 amine (or outer) side, 2 acyl side, 3 side chain; on linkers, the order of the positions; unused ones are H or OH. Square brackets hold non-standard residues; d marks the D form. Peptide text beside a SMILES is read from it. ξ: configuration not given here. X1 = CC1O[C@@H](CCCc2ccc(CC(N[*:1])C(=O)[*:2])cc2)C(O)C(O)[C@@H]1O; ξR = N=C(N)NCCCC(N)C(=O)O; ξS = NC(CO)C(=O)O

Assays:
P-selectin [1] = target: T1, P-selectin (Homo sapiens, UniProt P16109); test: HL60 cell adhesion assay on recombinant soluble P-selectin-IgG1 fusion protein; type: cell-based; settings: HL60 cell adhesion to P-selectin-IgG1
T1 construct: fused on or other part: constant region (hinge-Fc) of human IgG1 at the C-terminus, used as a capture handle
T1 sequence (P16109 42-321 limits assumed): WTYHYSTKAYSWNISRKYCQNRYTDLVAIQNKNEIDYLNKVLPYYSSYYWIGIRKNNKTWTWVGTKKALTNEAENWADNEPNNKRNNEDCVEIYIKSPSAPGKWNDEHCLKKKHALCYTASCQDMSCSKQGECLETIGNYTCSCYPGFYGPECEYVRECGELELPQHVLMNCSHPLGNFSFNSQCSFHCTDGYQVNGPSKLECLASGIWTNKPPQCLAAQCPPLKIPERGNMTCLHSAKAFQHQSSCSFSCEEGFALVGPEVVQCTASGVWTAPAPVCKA
From the text: 5. […] In the course of this, the cells have the opportunity to adhere to the coated plastic.

selectins [2] = settings: prior-art mimetics, Wong et al.; cited from earlier work
E-selectin = target: T2, E-selectin (Homo sapiens, UniProt P16581); test: HL60 cell adhesion assay on recombinant soluble E-selectin-IgG1 fusion protein; type: cell-based; settings: HL60 cell adhesion to E-selectin-IgG1
T2 construct: fusion proteins formed from the extracytoplasmatic domains of E- or P-selectin, respectively, and the constant region of human immunoglobulin of the IgG1 subclass; made in house; host or cells: COS-7 cells (transient transfection, culture supernatant)
T2 sequence (P16581 22-556): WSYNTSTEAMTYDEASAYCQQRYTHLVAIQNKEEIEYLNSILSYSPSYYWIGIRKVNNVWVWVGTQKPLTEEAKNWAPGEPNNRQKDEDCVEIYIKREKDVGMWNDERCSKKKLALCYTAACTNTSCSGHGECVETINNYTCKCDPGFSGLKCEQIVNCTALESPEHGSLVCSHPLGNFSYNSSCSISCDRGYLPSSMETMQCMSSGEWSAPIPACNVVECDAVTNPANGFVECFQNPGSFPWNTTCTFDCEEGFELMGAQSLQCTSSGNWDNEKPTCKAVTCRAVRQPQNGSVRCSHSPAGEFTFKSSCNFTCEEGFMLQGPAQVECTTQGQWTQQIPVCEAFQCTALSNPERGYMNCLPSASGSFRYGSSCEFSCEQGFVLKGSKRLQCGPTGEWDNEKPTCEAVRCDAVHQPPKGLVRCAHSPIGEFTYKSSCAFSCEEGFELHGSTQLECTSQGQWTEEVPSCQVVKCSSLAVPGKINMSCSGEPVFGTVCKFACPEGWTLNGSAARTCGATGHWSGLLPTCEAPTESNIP
From the text: In these assays, the ligands may be supplied in their natural form as surface structures on promyelocytic HL60 cells. Since HL60 cells contain ligands and adhesion molecules of very different specificity, the desired specificity of the assay must therefore be provided by the binding component. Preferably, the binding components used are recombinant, soluble, fusion proteins formed from the extracytoplasmatic domains of E- or P-selectin, respectively, and the constant region of human immunoglobulin of the IgG1 subclass. […] An example of a suitable negative control is a fusion protein formed between the extracytoplasmic domain of CD4 and the IgG constant region.
These fusion proteins are then used in a cell adhesion assay in which COS cells transfected with the recombinant fusion proteins are first bound to the surface of a microtiter plate. The compound to be tested is added to the wells of the microtiter platein varying concentrations, followed by HL60 cells. After a defined period of time, the wells of the microtiter plate are washed and the HL60 cells adhering to the plate are counted. In a preferred embodiment, the HL60 cells are prelabeled with a fluorescent dye to facilitate cell counting. The number of cells adhering to the plate allows quantification of the inhibitory properties of the compound under test. […]

[3] = test system: P-selectin-dependent lung damage; settings: animal experiments; cited from earlier work
[4] = test system: myocardial reperfusion injuries; settings: animal experiments; cited from earlier work
P-selectin [5] = target: T3, P-selectin (Homo sapiens, UniProt P16109); settings: read-out: IC50 for binding to P-selectin; cited from earlier work
T3 sequence (P16109 42-830): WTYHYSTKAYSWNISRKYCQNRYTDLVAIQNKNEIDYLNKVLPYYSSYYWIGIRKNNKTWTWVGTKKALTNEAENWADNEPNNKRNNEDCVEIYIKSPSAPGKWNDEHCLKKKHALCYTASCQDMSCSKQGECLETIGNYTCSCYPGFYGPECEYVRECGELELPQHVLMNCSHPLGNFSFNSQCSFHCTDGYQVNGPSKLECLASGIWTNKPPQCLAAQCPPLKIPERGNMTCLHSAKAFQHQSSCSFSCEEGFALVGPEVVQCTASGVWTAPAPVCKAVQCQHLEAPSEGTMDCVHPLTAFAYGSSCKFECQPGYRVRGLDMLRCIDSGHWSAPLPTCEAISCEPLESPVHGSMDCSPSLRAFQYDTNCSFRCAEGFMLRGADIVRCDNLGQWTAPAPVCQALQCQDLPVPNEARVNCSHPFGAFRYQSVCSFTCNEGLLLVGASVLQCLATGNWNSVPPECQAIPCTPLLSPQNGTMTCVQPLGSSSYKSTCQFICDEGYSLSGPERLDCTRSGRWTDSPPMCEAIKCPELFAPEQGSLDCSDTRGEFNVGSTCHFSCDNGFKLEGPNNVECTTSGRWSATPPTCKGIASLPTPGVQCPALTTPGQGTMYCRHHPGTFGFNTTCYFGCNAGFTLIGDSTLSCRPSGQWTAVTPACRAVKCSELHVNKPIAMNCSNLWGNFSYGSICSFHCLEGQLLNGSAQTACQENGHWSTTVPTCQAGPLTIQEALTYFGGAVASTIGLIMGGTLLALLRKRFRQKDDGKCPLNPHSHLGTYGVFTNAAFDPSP

selectins [6] = settings: prior-art glycopeptide analogs; cited from earlier work
selectin = settings: cited from earlier work

## CC1O[C@@H](CCCc2ccc(CC(N)C(=O)NC(CCCNC(=N)N)C(=O)NCC(=O)N[C@@H](CC(=O)O)C(=O)NC(CO)C(=O)O)cc2)C(O)C(O)[C@@H]1O (stereo partly drawn) [Compound 36, Ser-Asp-Gly-Arg-[C-FucPhe]] (H-[X1][ξR]GD[ξS]-OH)
P-selectin [1]
  IC50: 3000 to 5000 µM

## C[C@@H]1OC(CCCCC2O[C@H](CO)[C@H](O)[C@H](OCC(=O)O)[C@H]2O)[C@@H](O)C(O)[C@@H]1O (some centres unmarked) [(3)]
Selectins [2]
  IC50: 10000 to 20000 µM

## C[C@@H]1O[C@@H](CCCc2ccc(CC(N)C(=O)O)cc2)[C@@H](O)[C@H](O)[C@@H]1O (some centres unmarked) [Compound 20]
E-selectin
  IC50: 2000 µM
P-selectin [1]
  IC50: 2000 µM

## sialyl-Lewis-X [SLeX]
[3]
  protection against P-selectin-dependent lung damage: used successfully
[4]
  protection against myocardial reperfusion injuries: used successfully

## C[C@@H]1O[C@@H](CC(=O)CO[C@H]2CC[C@@]3(C)C(CC[C@]4(C)[C@H]3C(=O)C=C3[C@@H]5C[C@@](C)(C(=O)O)CC[C@]5(C)CC[C@]34C)C2(C)C)[C@@H](O)[C@H](O)[C@@H]1O (some centres unmarked) [(4a)]
P-selectin [5]
  IC50: 750 µM

## CC1O[C@@H](C/C=C/c2ccc(C(=O)O)cc2)C(O)[C@@H](O)[C@@H]1O (some centres unmarked) [Compound 23]
E-selectin
  IC50: 2000 µM
P-selectin [1]
  IC50: 2000 µM

## C[C@@H]1OC(CC(=O)C2CCC[C@H]2C(=O)N[C@@H](Cc2ccccc2)C(=O)O)[C@@H](O)[C@H](O)[C@@H]1O (some centres unmarked) [(2)]
Selectins [6]
  IC50: ~1000 µM

## COC1OC(C)C(O)(CC(=O)CCCOC2(C(=O)O)CC(O)C(NC(C)=O)C([C@H](O)[C@H](O)CO)O2)C(O)C1O (some centres unmarked)
selectin
  affinity for selectin binding: only low affinity
